Results taken from US7371776B2, “Methods and compositions for treating cancer” (Mars, Incorporated, priority 2004, dated 2008).

Test system: pRb
Test: Confirmation of LPS results by immunoblotting, MDA MB-231 cells
Type: cell-based, human
Method: The proteins affected by pentamer, as detected by LPS, were analyzed further by immunoblotting. Antibodies against the following proteins were used: Cdc2 (Tyr15), FKHR (Ser256), p53 (Ser37, Ser46 and Ser392), PKC-δ (Ser643), PKC-θ (Ser643/676), pRb (Ser795 and Ser807/811), SAPK/JNK (Thr183/Tyr185) and Stat 5 (Tyr694) (all antibodies were obtained from Cell Signaling).
Protein pellets from pentamer-treated MDA MB-231, MDA MB-468 and MCF-7 cells and corresponding DMSO-treated controls were lysed in PBS with 1% SDS and sonicated for 15 seconds at a power of five watts. Samples were then centrifuged at 10,000 rpm and supernatants transferred into clean tubes. Protein concentration was determined as descried above. Ten jig of each protein sample was separated by PAGE on 4-20% gradient gels (BioRad, Philadelphia, Pa.). Gels were either transferred to PVDF membranes (BioRad) or P-FILM membrane (stacks of 10 membranes) according to the manufacturer's instructions (20/20 Gene Systems). PVDF membranes were blocked for 1 hour in 0.5% casein solution (Vector Laboratories, Burlingame, Calif.), prior to incubation with primary antibodies. […] The membranes were incubated overnight at 4° C. in 1:500 dilutions of primary antibodies, washed three times in TBST for five minutes, incubated in HRP-conjugated secondary antibodies, washed again and incubated in ECL Plus Reagent (Amersham). Signals were visualized on BIOMAX MR film (Kodak, Rochester, N.Y.). Following incubation with primary antibodies, membranes were incubated in anti-GAPDH antibody (1:500 dilution; Chemicon, Temecula, Calif.). The presence of this protein was visualized with secondary antibody conjugated to alkaline phosphatase DuoLux substrate (Vector Laboratories).
As a control, the PVDF membranes probed for Cdc2, FKHR, p53, and pRb were stripped according to manufacturer's instructions (Cell Signaling). After striping, membranes were washed four times for five minutes each in TBST buffer, blocked as described above, washed again and incubated in primary antibodies overnight at 4° C. The primary antibodies used were anti-total Cdc2 (1:1000 dilution, Cell Signaling), anti-total FKHR (1:1000 dilution, Cell Signaling), anti-endogenous p53 (1:1000, Cell Signaling) and anti-endogenous pRb (1:1000, Santa Cruz). The next day, membranes were washed and incubated in HRP conjugated secondary antibodies, washed again and incubated in ECL Plus Reagent (Amersham). Signals were detected as previously described. To test equality of loading, membranes were probed with anti-GAPDH antibody (1:500 dilution; Chemicon, Temecula, Calif.) as described above.

`Oc1cc(O)c2c(c1)O[C@H](c1ccc(O)c(O)c1)[C@H](O)[C@H]2c1c(O)cc(O)c2c1O[C@H](c1ccc(O)c(O)c1)[C@H](O)[C@H]2c1c(O)cc(O)c2c1O[C@H](c1ccc(O)c(O)c1)[C@H](O)[C@H]2c1c(O)cc(O)c2c1O[C@H](c1ccc(O)c(O)c1)[C@H](O)[C@H]2c1c(O)cc(O)c2c1O[C@H](c1ccc(O)c(O)c1)[C@H](O)C2` [pentamer, pentameric procyanidin] was tested, and the “pRb, both total and phospho-specific sites” value (PVDF membrane reprobed) was “affected” and the “effect on phosphorylated form of pRb (Ser795 and Ser807/811)” value (immunoblot, 48 and 72 hr) was “had an effect”.
